Measurements published in paper PMC7613998, “Development of selective inhibitors of phosphatidylinositol 3-kinase C2α” (Nature Chemical Biology, 2022).
pIC50: −log10 of the molar value.

Molecular target: T1, PI3KC2α (Homo sapiens, UniProt O00443)
T1 construct: gene PIK3C2A; human PI3KC2α^ΔN (amino acids 376–1686)
Assay: ADP-Glo lipid kinase assay with PI as substrate
Assay type: biochemical

T1 sequence (O00443 376-1686): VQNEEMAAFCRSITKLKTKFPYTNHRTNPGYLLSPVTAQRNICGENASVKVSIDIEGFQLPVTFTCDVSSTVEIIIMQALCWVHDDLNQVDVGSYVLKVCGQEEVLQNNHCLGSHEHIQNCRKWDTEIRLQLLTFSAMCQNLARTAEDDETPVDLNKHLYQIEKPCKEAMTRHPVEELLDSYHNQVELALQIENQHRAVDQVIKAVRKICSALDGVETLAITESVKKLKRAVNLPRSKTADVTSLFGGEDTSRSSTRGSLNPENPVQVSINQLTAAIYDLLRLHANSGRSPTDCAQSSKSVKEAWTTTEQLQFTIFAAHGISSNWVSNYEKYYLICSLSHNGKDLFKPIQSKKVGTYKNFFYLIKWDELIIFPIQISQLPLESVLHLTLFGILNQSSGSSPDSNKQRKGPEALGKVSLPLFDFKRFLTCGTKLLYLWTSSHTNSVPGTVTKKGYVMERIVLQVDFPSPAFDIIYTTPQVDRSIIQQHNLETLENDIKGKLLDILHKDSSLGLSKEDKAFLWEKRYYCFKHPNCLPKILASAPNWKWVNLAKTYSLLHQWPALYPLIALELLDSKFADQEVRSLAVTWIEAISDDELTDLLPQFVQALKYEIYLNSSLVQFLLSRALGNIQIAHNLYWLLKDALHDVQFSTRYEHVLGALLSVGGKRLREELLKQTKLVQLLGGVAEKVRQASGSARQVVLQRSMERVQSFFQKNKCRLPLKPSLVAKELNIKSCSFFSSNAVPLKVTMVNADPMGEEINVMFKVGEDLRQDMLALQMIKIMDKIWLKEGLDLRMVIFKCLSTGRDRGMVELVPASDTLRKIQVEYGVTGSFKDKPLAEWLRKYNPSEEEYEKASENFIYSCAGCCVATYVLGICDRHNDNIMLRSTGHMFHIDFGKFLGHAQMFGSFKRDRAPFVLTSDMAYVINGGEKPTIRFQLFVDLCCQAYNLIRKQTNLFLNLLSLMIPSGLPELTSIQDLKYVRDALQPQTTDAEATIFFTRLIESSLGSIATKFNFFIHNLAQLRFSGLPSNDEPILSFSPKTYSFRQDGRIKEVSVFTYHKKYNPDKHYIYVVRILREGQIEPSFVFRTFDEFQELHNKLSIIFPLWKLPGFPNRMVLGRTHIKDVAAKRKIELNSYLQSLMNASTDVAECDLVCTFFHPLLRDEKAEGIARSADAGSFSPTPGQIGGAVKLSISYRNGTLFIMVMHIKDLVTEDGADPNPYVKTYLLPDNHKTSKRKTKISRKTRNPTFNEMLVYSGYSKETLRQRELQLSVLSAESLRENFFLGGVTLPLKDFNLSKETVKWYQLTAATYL

pIC50: 5.59
Compound: CC(C)CCn1c(SCC(=O)Nc2ccccc2C(F)(F)F)nc2nccnc2c1=O [compound 4]
